From US10000451B2, “MAP4K4 (HGK) inhibitors” (SRI INTERNATIONAL, priority 2015, dated 2018)
Read-outs that look alike come from different tables or passages of the source.

Tests used:
MAP4K4 = MAP4K4 (Homo sapiens, UniProt O95819); experiment: MAP4K4 kinase assay (in-house); type: biochemical
Text: Signaling pathways mediating anticancer activity. […] We established the MAP4K4 kinase assay in-house and confirmed that the compounds are indeed potent MAP4K4 inhibitors.

A498 = experiment: Activity against cancer cell lines; type: cell-based; settings: Homo sapiens
Text: (§1) Exemplary data is shown below.

ACHN = experiment: Activity against cancer cell lines; type: cell-based; settings: Homo sapiens
Text: as §1

ADRRES = experiment: Activity against cancer cell lines; type: cell-based
Text: as §1

CAKI1 = experiment: Activity against cancer cell lines; type: cell-based; settings: Homo sapiens, CAKI-1
Text: as §1

HCT15 = experiment: Activity against cancer cell lines; type: cell-based; settings: Homo sapiens, HCT-15
Text: as §1

HL60 = experiment: Activity against cancer cell lines; type: cell-based
Text: as §1

LOXIMVI = experiment: Activity against cancer cell lines; type: cell-based; settings: Homo sapiens, LOX IMVI
Text: as §1

M14 = experiment: Activity against cancer cell lines; type: cell-based; settings: Homo sapiens
Text: as §1

MCF7 = experiment: Activity against cancer cell lines; type: cell-based; settings: Homo sapiens
Text: as §1

MDAMB435 = experiment: Activity against cancer cell lines; type: cell-based; settings: Homo sapiens, MDA-MB-435
Text: as §1

MOLT4 = experiment: Activity against cancer cell lines; type: cell-based; settings: Homo sapiens, MOLT-4
Text: as §1

NCIH522 = experiment: Activity against cancer cell lines; type: cell-based; settings: Homo sapiens, NCI-H522
Text: as §1

OVCAR4 = experiment: Activity against cancer cell lines; type: cell-based
Text: as §1

OVCAR8 = experiment: Activity against cancer cell lines; type: cell-based
Text: as §1

RXF393 = experiment: Activity against cancer cell lines; type: cell-based; settings: Homo sapiens, RXF 393
Text: as §1

SF295 = experiment: Activity against cancer cell lines; type: cell-based; settings: Homo sapiens, SF-295
Text: as §1

SF539 = experiment: Activity against cancer cell lines; type: cell-based; settings: Homo sapiens, SF-539
Text: as §1

SKMEL2 = experiment: Activity against cancer cell lines; type: cell-based; settings: Homo sapiens, SK-MEL-2
Text: as §1

SKMEL5 = experiment: Activity against cancer cell lines; type: cell-based; settings: Homo sapiens, SK-MEL-5
Text: as §1

SNB75 = experiment: Activity against cancer cell lines; type: cell-based
Text: as §1

UO31 = experiment: Activity against cancer cell lines; type: cell-based; settings: Homo sapiens, UO-31
Text: as §1

BT549 = experiment: Breast cancer cell line growth inhibition; type: cell-based; settings: Homo sapiens, BT-549; BT549, triple negative; read-out: IC50 against breast cancer cell lines
Text: (§2) Generally, their potency is positively correlated with MAP4K4 expression in cancer cell lines.

HS578T = experiment: Breast cancer cell line growth inhibition; type: cell-based; settings: Homo sapiens, Hs-578T, triple negative, read-out: IC50 against breast cancer cell lines
Text: as §2

MCF-7 = experiment: Breast cancer cell line growth inhibition; type: cell-based; settings: Homo sapiens, MCF7; MCF-7, ER (+); read-out: IC50 against breast cancer cell lines
Text: as §2

MDA-MB-231 = experiment: Breast cancer cell line growth inhibition; type: cell-based; settings: Homo sapiens; MDA-MB-231, triple negative; read-out: IC50 against breast cancer cell lines
Text: as §2

T47D = experiment: Breast cancer cell line growth inhibition; type: cell-based; settings: Homo sapiens, ER (+), read-out: IC50 against breast cancer cell lines
Text: as §2

DU-145 = experiment: Prostate cancer cell proliferation assay; type: cell-based; settings: Homo sapiens; DU-145, 72 hours; read-out: IC50 against prostate cancer cell lines
Text: (§3) The dose-response curves of cell growth inhibition were consistent.
(§4) Cell proliferation assays.

LNCaP = experiment: Prostate cancer cell proliferation assay; type: cell-based; settings: Homo sapiens, 72 hours, read-out: IC50 against prostate cancer cell lines
Text: as §3, §4

PC-3 = experiment: Prostate cancer cell proliferation assay; type: cell-based; settings: Homo sapiens; PC-3, 72 hours; read-out: IC50 against prostate cancer cell lines
Text: as §3, §4

[1] = In vivo pharmacokinetic study, oral formulations; settings: mouse, plasma, 60 mg/kg, mice
Experimental: In vivo pharmacokinetic (PK) studies; oral bioavailability. We conducted pre-formulation studies and selected different oral formulations for mice PK studies to explore the effect of formulation on drug absorption.
The PK profiles of representative compounds (60 mg/kg) were determined in different oral formulations (HPC and PTTW) with groups of three mice per time point.

[2] = Metabolic stability in liver microsomes; type: in vitro ADME; settings: NADPH, 10 μM
Experimental: The compounds are experimentally predicted to have a longer half-life in humans. We conducted metabolic stability studies in human and mouse liver microsomes. Metabolic stability in pooled human or mouse liver microsomes, in the presence of NADPH, was measured with 10 μM compound over 60 min.

[3] = test system: caspase-3 and -7 activities; experiment: Caspase-Glo 3/7 apoptosis assay; type: cell-based; settings: 20 nM
Text: Efficacy-related endpoints. We conducted an in-depth mechanism of action study in androgen-sensitive (LNCaP) and -insensitive (PC-3 and DU-145) prostate cancer cell lines.
Apoptosis assay. The Caspase-Glo® 3/7 Assay (Promega), a homogeneous, luminescent assay that measures caspase-3 and -7 activities, was used to access apoptosis induction.

CCRFCEM = experiment: Activity against cancer cell lines; type: cell-based
Text: as §1

MAP4K4, sequence (O95819 whole entry): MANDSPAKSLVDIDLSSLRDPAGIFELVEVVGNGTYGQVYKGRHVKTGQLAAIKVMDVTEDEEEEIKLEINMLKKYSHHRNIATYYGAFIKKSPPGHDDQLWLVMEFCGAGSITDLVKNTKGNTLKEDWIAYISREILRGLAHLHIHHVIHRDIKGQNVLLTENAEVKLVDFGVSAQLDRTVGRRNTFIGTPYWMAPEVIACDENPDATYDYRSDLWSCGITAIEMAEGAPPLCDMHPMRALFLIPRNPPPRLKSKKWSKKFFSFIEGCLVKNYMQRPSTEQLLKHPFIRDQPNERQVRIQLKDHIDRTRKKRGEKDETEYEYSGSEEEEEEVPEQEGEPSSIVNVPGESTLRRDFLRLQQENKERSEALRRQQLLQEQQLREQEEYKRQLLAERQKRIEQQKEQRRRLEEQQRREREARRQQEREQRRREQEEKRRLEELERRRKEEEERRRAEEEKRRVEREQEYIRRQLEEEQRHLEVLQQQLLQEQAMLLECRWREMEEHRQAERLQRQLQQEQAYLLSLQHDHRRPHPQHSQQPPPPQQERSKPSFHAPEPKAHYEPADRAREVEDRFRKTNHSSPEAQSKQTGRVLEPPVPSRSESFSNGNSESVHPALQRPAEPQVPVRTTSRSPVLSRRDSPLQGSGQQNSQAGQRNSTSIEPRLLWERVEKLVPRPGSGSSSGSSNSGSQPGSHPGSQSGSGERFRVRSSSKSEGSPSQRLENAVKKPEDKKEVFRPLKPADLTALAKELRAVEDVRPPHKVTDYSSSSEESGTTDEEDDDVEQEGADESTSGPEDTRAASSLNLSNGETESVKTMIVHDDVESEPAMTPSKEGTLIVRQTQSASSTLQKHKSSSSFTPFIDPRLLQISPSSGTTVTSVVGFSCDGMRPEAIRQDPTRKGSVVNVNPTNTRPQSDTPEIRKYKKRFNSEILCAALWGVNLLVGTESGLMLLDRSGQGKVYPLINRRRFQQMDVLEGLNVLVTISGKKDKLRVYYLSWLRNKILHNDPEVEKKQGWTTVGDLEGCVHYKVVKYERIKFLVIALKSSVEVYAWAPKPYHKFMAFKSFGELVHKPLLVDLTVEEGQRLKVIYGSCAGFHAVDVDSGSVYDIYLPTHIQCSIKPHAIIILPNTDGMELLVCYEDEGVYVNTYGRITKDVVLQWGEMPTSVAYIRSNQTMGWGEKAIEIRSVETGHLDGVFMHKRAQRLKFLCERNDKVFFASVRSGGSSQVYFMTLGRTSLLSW

Compound `COc1ccc2[nH]c(C(=O)c3ccc4[nH]ccc4c3)cc2c1` [Cmpd 1, (1H-indol-5-yl)(5-methoxy-1H-indol-2-yl)methanone] has an IC50 (MAP4K4) of 0.16 µM, an IC50 (A498) of 0.052 µM and an IC50 (ACHN) of 0.0057 µM. For the same compound, the IC50 (ADRRES) was 0.027 µM, the IC50 (CAKI1) was 0.023 µM and the IC50 (HCT15) was 0.027 µM. It also gave an IC50 (HL60; HL60) of 0.024 µM, an IC50 (HL60; Homo sapiens, HL-60, HL60) of 0.035 µM and an IC50 (LOXIMVI) of 0.014 µM. For the same compound, the IC50 (M14) was 0.038 µM, the IC50 (MCF7) was 0.059 µM and the IC50 (MDAMB435) was 0.021 µM. For the same compound, the IC50 (MOLT4) was 0.053 µM, the IC50 (NCIH522) was 0.032 µM and the IC50 (OVCAR4; Homo sapiens, OVCAR-4, OVCAR4) was 0.09 µM. It also gave an IC50 (OVCAR4; OVCAR4) of 0.056 µM, an IC50 (OVCAR8; Homo sapiens, OVCAR-8, OVCAR8) of 0.067 µM and an IC50 (OVCAR8; OVCAR8) of 0.053 µM. It also gave an IC50 (RXF393) of 0.038 µM, an IC50 (SF295) of 0.054 µM and an IC50 (SF539) of 0.039 µM. For the same compound, the IC50 (SKMEL2) was 0.063 µM, the IC50 (SKMEL5) was 0.033 µM and the IC50 (SNB75; Homo sapiens, SNB-75, SNB75) was 0.042 µM. It also gave an IC50 (SNB75; SNB75) of 0.034 µM and an IC50 (UO31) of 0.066 µM.

In the case of `COc1ccc2[nH]c(C(=O)c3ccc4[nH]nc(C)c4c3)cc2c1` [Cmpd 18, (5-methoxy-1H-indol-2-yl)(3-methyl-1H-indazol-5-yl)methanone], the IC50 (MAP4K4) is reported as 0.14 µM, the IC50 (BT549) is reported as 0.012 µM and the IC50 (HS578T) is reported as 0.013 µM. For the same compound, the IC50 (MCF-7) was 0.083 µM, the IC50 (MDA-MB-231) was 0.014 µM and the IC50 (T47D) was 0.029 µM. It also gave an IC50 (DU-145) of 0.023 µM, an IC50 (LNCaP) of 0.016 µM and an IC50 (PC-3) of 0.011 µM. It also gave a concentration at 0.5 h ([1]; oral 60 mg/kg in 0.5% HPC) of 319 ± 106 ng/mL, a concentration at 4 h ([1]; oral 60 mg/kg in 0.5% HPC) of 33 ± 21 ng/mL and a concentration at 8 h ([1]; oral 60 mg/kg in 0.5% HPC) of 34.7 ± 18.8 ng/mL. The concentration at 24 h ([1]; oral 60 mg/kg in 0.5% HPC) was 1.3 ± 2.3 ng/mL, the concentration at 0.5 h ([1]; oral 60 mg/kg in PTTW) was 798 ± 204 ng/mL and the concentration at 4 h ([1]; oral 60 mg/kg in PTTW) was 75.5 ± 19.3 ng/mL. For the same compound, the concentration at 8 h ([1]; oral 60 mg/kg in PTTW) was 21.7 ± 11.1 ng/mL, the concentration at 24 h ([1]; oral 60 mg/kg in PTTW) was 15.4 ± 7.2 ng/mL and the “% of Parent Compound Remaining vs T = 0 min” value (from here on “% of Parent Compound Remaining”) ([2]; human liver microsomes, 15 min) was 72.9%. For the same compound, the “% of Parent Compound Remaining” value ([2]; human liver microsomes, 30 min) was 63.1%, the “% of Parent Compound Remaining” value ([2]; human liver microsomes, 60 min) was 53.0% and the “% of Parent Compound Remaining” value ([2]; mouse liver microsomes, 15 min) was 31.6%. The “% of Parent Compound Remaining” value ([2]; mouse liver microsomes, 30 min) was 9.9%, the “% of Parent Compound Remaining” value ([2]; mouse liver microsomes, 60 min) was 1.0% and the apoptosis induction ([3]; 24 hours treatment) was “significantly induced apoptosis”. The apoptosis induction ([3]; 48 hours treatment) was “more profound apoptotic effect”.

`COc1cccc2c1C(=O)c1c(O)c3c(c(O)c1C2=O)C[C@@](O)(C(=O)CO)C[C@@H]3O[C@H]1C[C@H](N)[C@H](O)[C@H](C)O1` [Doxorubicin, reference compound] gave an IC50 (A498) of 0.65 µM, an IC50 (ACHN) of 0.54 µM and an IC50 (ADRRES) of 11 µM. The IC50 (CAKI1) was 0.18 µM, the IC50 (CCRFCEM) was 0.087 µM and the IC50 (CCRFCEM; Homo sapiens, CCRF-CEM) was 0.047 µM. The IC50 (HCT15) was 1.3 µM, the IC50 (HL60; HL60) was 0.13 µM and the IC50 (HL60; Homo sapiens, HL-60, HL60) was 0.15 µM. For the same compound, the IC50 (LOXIMVI) was 0.26 µM, the IC50 (M14) was 0.81 µM and the IC50 (MCF7) was 0.41 µM. For the same compound, the IC50 (MDAMB435) was 0.97 µM, the IC50 (MOLT4) was 0.075 µM and the IC50 (NCIH522) was 0.5 µM. The IC50 (OVCAR4; Homo sapiens, OVCAR-4, OVCAR4) was 1.9 µM, the IC50 (OVCAR4; OVCAR4) was 1.5 µM and the IC50 (RXF393) was 1 µM. For the same compound, the IC50 (SF295) was 0.43 µM, the IC50 (SF539) was 0.39 µM and the IC50 (SKMEL2) was 0.68 µM. It also gave an IC50 (SKMEL5) of 0.39 µM, an IC50 (SNB75; Homo sapiens, SNB-75, SNB75) of 0.61 µM and an IC50 (SNB75; SNB75) of 0.58 µM. It also gave an IC50 (UO31) of 2.5 µM.
